Data from ChEMBL document CHEMBL5728299, “Compounds and compositions for inhibiting the activity of SHP2” (2021).

Assay: After 30-60 minutes incubation at 25° C., the surrogate substrate DiFMUP (Invitrogen, cat #D6567) was added to the reaction and incubated at 25° C. for 30 minutes. The reaction was then quenched by the addition of 5 μl of a 160 μM solution of bpV(Phen) (Enzo Life Sciences cat #ALX-270-204). The fluorescence signal was monitored using a microplate reader (Envision, Perki-Elmer) using excitation and emission wavelengths of 340 nm and 450 nm, respectively. The inhibitor dose response curves were analyzed using normalized IC50 regression curve fitting with control based normalization.

For CC1(CN)CCN(c2nnc(Sc3cccc(NC(=O)c4cnc5ccccn5c4=O)c3Cl)c(N)n2)CC1, the IC50 was 173 nM.
